BindingDB's records for doi:10.1021/jm060732n (Mcgill University, 2006)

Assay: Inhibition of Enterococcus faecium AAC(6')Ii

| Structure (SMILES) | Ki [nM] |
| --- | --- |
| CC(C)(COP(=O)(O)OP(=O)(O)OC[C@H]1O[C@@H](n2cnc3c(N)ncnc32)[C@H](O)[C@@H]1OP(=O)(O)O)[C@@H](O)C(=O)NCCC(=O)NCCSCCCCC(=O)NC[C@H]1O[C@H](O[C@H]2[C@H](O)[C@@H](O)[C@H](N)C[C@@H]2N)[C@H](N)[C@@H](O)[C@@H]1O [[(2R,3S,4R,5R)-5-(6-amino-9H-purin-9-yl)-4-hydroxy-3-(phosphonatooxy)oxolan-2-yl]methyl {[(3R)-3-({2-[(2-{[4-({[(2R,3S,4R,5R,6R)-5-amino-6-{[(1R,2R,3S,4R,6S)-4,6-diamino-2,3-dihydroxycyclohexyl]oxy}-3,4-dihydroxyoxan-2-yl]methyl}carbamoyl)butyl]sulfanyl}ethyl)carbamoyl]ethyl}carbamoyl)-3-hydroxy-2,2-dimethylpropylphosphonato]oxy}phosphonate] | 8000 |
| CC(C)(COP(=O)(O)OP(=O)(O)OC[C@H]1O[C@@H](n2cnc3c(N)ncnc32)[C@H](O)[C@@H]1OP(=O)(O)O)[C@@H](O)C(=O)NCCC(=O)NCCSCC(=O)NC[C@H]1O[C@H](O[C@H]2[C@H](O)[C@@H](O)[C@H](N)C[C@@H]2N)[C@H](N)[C@@H](O)[C@@H]1O [[(2R,3S,4R,5R)-5-(6-amino-9H-purin-9-yl)-4-hydroxy-3-(phosphonatooxy)oxolan-2-yl]methyl {[(3R)-3-({2-[(2-{[({[(2R,3S,4R,5R,6R)-5-amino-6-{[(1R,2R,3S,4R,6S)-4,6-diamino-2,3-dihydroxycyclohexyl]oxy}-3,4-dihydroxyoxan-2-yl]methyl}carbamoyl)methyl]sulfanyl}ethyl)carbamoyl]ethyl}carbamoyl)-3-hydroxy-2,2-dimethylpropylphosphonato]oxy}phosphonate] | 76 |
| CC(C)(COP(=O)(O)OP(=O)(O)OC[C@H]1O[C@@H](n2cnc3c(N)ncnc32)[C@H](O)[C@@H]1OP(=O)(O)O)[C@@H](O)C(=O)NCCC(=O)NCCSCCC(=O)NC[C@H]1O[C@H](O[C@H]2[C@H](O)[C@@H](O)[C@H](N)C[C@@H]2N)[C@H](N)[C@@H](O)[C@@H]1O [truncated aminoglycoside-coenzyme A bisubstrate analogue 1b] | 43 |
| CC(C)(COP(=O)(O)OP(=O)(O)OC[C@H]1O[C@@H](n2cnc3c(N)ncnc32)[C@H](O)[C@@H]1OP(=O)(O)O)[C@@H](O)C(=O)NCCC(=O)NCCSCCCC(=O)NC[C@H]1O[C@H](O[C@H]2[C@H](O)[C@@H](O)[C@H](N)C[C@@H]2N)[C@H](N)[C@@H](O)[C@@H]1O [truncated aminoglycoside-coenzyme A bisubstrate analogue 1c] | 161 |

The next lines start with the values.

| Ki [nM] | Structure (SMILES) |
| --- | --- |
| 110 | CC(C)(COP(=O)(O)OP(=O)(O)OC[C@H]1O[C@@H](n2cnc3c(N)ncnc32)[C@H](O)[C@@H]1OP(=O)(O)O)[C@@H](O)C(=O)NCCC(=O)NCCSCC(=O)NC[C@H]1O[C@H](O[C@H]2[C@H](O)[C@@H](O[C@H]3O[C@H](CO)[C@@H](O)[C@H](N)[C@H]3O)[C@H](N)C[C@@H]2N)[C@H](O)[C@@H](O)[C@@H]1O |
| 119 | CC(C)(COP(=O)(O)OP(=O)(O)OC[C@H]1O[C@@H](n2cnc3c(N)ncnc32)[C@H](O)[C@@H]1OP(=O)(O)O)[C@@H](O)C(=O)NCCC(=O)NCCSCC(=O)NC[C@H]1O[C@H](O[C@H]2[C@H](O)[C@@H](O[C@H]3O[C@H](CO)[C@@H](O)[C@H](O)[C@H]3O[C@@H]3O[C@H](CO)[C@@H](O)[C@H]3O)[C@H](N)C[C@@H]2N)[C@H](N)[C@@H](O)[C@@H]1O [truncated aminoglycoside-coenzyme A bisubstrate analogue 3] |
